The values that follow come from ChEMBL document CHEMBL1201862, “PubChem BioAssay data set” (2004).

The structures appear in SMILES notation.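 Growth conditions: 96-well plates. Treatment: test compound, 48 hours, 5 concentrations. Analysis: linear interpolation between bracketing concentrations; unreached endpoints set to highest concentration. GI50 marks 50% less growth.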 The source made the active and inactive calls. Rule as the data show it: active = GI50 up to about 1.1 µM and inactive = higher.

What all share (test): NCI-60 cell line screen, 48 h
Assay [1] deals with HCC 2998.
Assay [2] concerns SW-620.
Assay [3] has as its system NCI-H522.
The subject of assay [4] is RXF 393.
Assay [5] concerns ACHN.
For assay [6], the system named is UO-31.
The subject of assay [7] is NCI-H460.
Assay [8] deals with OVCAR-5.
Assay [9] relates to RPMI-8226.
Assay [10] has as its system EKVX.
Assay [11] relates to SK-OV-3.
Assay [12] has as its system UACC-257.
The subject of assay [13] is NCI-H226.
In assay [14] the test system is KM12.
Assay [15] deals with OVCAR-4.
Assay [16] has as its system HCT-116.
Assay [17] has as its system SK-MEL-5.
Assay [18] concerns HOP-62.
The test system of assay [19] is U-251.
Assay [20] relates to TK-10.

`COC1=C2CC(C)CC(OC)C(OC(=O)CN)[C@H](C)/C=C(\C)C(OC(N)=O)C(OC)/C=C\C=C(/C)C(=O)NC(=CC1=O)C2=O` (stereo partly drawn): the GI50 in assay [1] was 1.9 µM (inactive); in assay [2], 0.065 µM (active); in assay [3] it was 0.159 µM (active); in [4] it was 0.507 µM (active); in [5], 0.446 µM (active); in assay [6], 0.716 µM (active). Further, the GI50 in assay [7] was 6.14 µM (inactive); in assay [8], 1.03 µM (active); in [9], 0.902 µM (active); in assay [10], 0.838 µM (active); in [11], 3.32 µM (inactive); in assay [12], 0.359 µM (active). For the same molecule, the GI50 was 10.4 µM (inactive) in assay [13]; 1.24 µM (inactive) in assay [14]; 0.708 µM (active) in assay [15]; 0.498 µM (active) in [16]; 0.855 µM (active) in [17]; 0.942 µM (active) in assay [18]. Further, the results for the GI50 in assay [19] and in assay [20] were 1.58 µM (inactive) and 0.519 µM (active), respectively.

As for `Cc1ccc2[nH]c3c(C)c4ccncc4c(C)c3c2c1`, the GI50 in assay [1] was 1.48 µM (inactive); in assay [2] it was 0.384 µM (active); in assay [3], 0.929 µM (active); in assay [4], 0.226 µM (active); in assay [5], 1.09 µM (active); in [6], 1.58 µM (inactive). In addition, the GI50 in [7] is 0.456 µM (active); in assay [8] it was 1.37 µM (inactive); in assay [9], 1.09 µM (active); in assay [10] it was 1.47 µM (inactive); in assay [11], 2.23 µM (inactive); in assay [12], 1.41 µM (inactive). Further, the GI50 is 1.72 µM (inactive) in assay [13]; 0.614 µM (active) in [14]; 1.08 µM (active) in [15]; 0.322 µM (active) in assay [16]; 1.6 µM (inactive) in [17]; 1.19 µM (inactive) in assay [18]. Moreover, the GI50 was 1.16 µM (inactive) in [19] and 3.81 µM (inactive) in assay [20].

As for `Cc1ccc([N+](=O)[O-])cc1S(=O)(=O)Nc1ccc(C2=NNC(c3ccccc3O)C2)cc1` (stereo not drawn), the GI50 in assay [1] was 34.7 µM (inactive); in assay [2], 31 µM (inactive); in assay [3], 23.3 µM (inactive); in assay [4] it was 15.2 µM (inactive); in [5], 23.6 µM (inactive); in assay [6], 17.9 µM (inactive). The GI50 in assay [7] is 25.7 µM (inactive); in assay [8] it was 32.4 µM (inactive); in assay [9], 26.2 µM (inactive); in assay [10], 20.9 µM (inactive); in assay [11], 25.1 µM (inactive); in assay [12], 25.9 µM (inactive). Further, the GI50 is 48.3 µM (inactive) in assay [13]; 21.6 µM (inactive) in [14]; 19.8 µM (inactive) in assay [15]; 21.9 µM (inactive) in assay [16]; 19.2 µM (inactive) in assay [17]; 21.1 µM (inactive) in assay [18]. Besides, in assay [20], the GI50 is 0.416 µM (active).

In the case of `O=c1c2c(nc3[nH]ccn13)CCCC2`, the GI50 in assay [1], in assay [2], in assay [3], in [4], in [5] and in assay [6] was > 10 µM (inactive) each time. In addition, the GI50 in assay [7], in assay [8], in assay [9], in assay [10], in [11] and in assay [13] was > 10 µM (inactive) in each case. For the same molecule, the GI50 in [14], in assay [15], in [16], in assay [17], in [18] and in [19] was > 10 µM (inactive) each time. Further, in [20], the GI50 was > 10 µM (inactive).

For the molecule `CN/N=C(\C(=O)Nc1ccc(C)c(C)c1)C(C(=O)OC)c1nc2ccc([N+](=O)[O-])cc2nc1O` (stereo not drawn), the GI50 is > 100 µM (inactive) in assay [1]; > 100 µM (inactive) in [2]; 12.6 µM (inactive) in assay [3]; > 100 µM (inactive) in [4]; > 100 µM (inactive) in [5]; > 100 µM (inactive) in [6]. Further, the GI50 was > 100 µM (inactive) in [7]; > 100 µM (inactive) in assay [8]; 52.7 µM (inactive) in [9]; 60.5 µM (inactive) in assay [10]; > 100 µM (inactive) in assay [11]; > 100 µM (inactive) in [12]. The GI50 is > 100 µM (inactive) in [13]; 94.4 µM (inactive) in [14]; > 100 µM (inactive) in [15]; > 100 µM (inactive) in [16]; > 100 µM (inactive) in assay [17]; > 100 µM (inactive) in assay [18]. The GI50 in assay [19] and in assay [20] was > 100 µM (inactive) each time.

For the molecule `CC1(C(=O)O)CCC(C(=O)O)C(C)(C)O1` (stereo not drawn), the GI50 in assay [1], in assay [2], in assay [3], in assay [4], in assay [5] and in assay [6] was > 100 µM (inactive) throughout. Moreover, the GI50 in assay [7], in assay [8], in assay [9], in assay [10], in [11] and in assay [12] was > 100 µM (inactive) each time. Moreover, the GI50 in [13] is > 100 µM (inactive); in [14], > 100 µM (inactive); in assay [15] it was > 100 µM (inactive); in [16], > 100 µM (inactive); in assay [17], > 100 µM (inactive); in [18] it was 4.9 µM (inactive). Moreover, the GI50 in [19] and in assay [20] was > 100 µM (inactive) in each case.
